Measurements from patent publication US20100144733A1, “Compounds, compositions and methods comprising heteroaromatic derivatives” (Institute for OneWorld Health, priority 2008, published 2010).

Target: T1, CFTR (Homo sapiens, UniProt P13569)
T1 construct: endogenous in cells; host or cells: T84 human colonic cells (ECACC)
Assay: T84 assay (FLIPR membrane potential dye, forskolin/IBMX-stimulated CFTR channel activity)
Assay type: cell-based
Conditions: imidazole and triazole-containing compounds (Tables 13, 14, 14′), read-out: IC50 (μM) (T84 assay)
Procedure, shortened: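 Fluorescence from a membrane potential dye in T84 monolayers (HBSS with 10 mM Hepes) is followed each second for 150 s. Cells are exposed to test compound during the 45 min dye loading, then challenged with forskolin (10 μM) and IBMX (100 μM) to open CFTR. Inhibitors suppress the depolarization-driven fluorescence increase.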

T1 sequence (P13569 whole entry): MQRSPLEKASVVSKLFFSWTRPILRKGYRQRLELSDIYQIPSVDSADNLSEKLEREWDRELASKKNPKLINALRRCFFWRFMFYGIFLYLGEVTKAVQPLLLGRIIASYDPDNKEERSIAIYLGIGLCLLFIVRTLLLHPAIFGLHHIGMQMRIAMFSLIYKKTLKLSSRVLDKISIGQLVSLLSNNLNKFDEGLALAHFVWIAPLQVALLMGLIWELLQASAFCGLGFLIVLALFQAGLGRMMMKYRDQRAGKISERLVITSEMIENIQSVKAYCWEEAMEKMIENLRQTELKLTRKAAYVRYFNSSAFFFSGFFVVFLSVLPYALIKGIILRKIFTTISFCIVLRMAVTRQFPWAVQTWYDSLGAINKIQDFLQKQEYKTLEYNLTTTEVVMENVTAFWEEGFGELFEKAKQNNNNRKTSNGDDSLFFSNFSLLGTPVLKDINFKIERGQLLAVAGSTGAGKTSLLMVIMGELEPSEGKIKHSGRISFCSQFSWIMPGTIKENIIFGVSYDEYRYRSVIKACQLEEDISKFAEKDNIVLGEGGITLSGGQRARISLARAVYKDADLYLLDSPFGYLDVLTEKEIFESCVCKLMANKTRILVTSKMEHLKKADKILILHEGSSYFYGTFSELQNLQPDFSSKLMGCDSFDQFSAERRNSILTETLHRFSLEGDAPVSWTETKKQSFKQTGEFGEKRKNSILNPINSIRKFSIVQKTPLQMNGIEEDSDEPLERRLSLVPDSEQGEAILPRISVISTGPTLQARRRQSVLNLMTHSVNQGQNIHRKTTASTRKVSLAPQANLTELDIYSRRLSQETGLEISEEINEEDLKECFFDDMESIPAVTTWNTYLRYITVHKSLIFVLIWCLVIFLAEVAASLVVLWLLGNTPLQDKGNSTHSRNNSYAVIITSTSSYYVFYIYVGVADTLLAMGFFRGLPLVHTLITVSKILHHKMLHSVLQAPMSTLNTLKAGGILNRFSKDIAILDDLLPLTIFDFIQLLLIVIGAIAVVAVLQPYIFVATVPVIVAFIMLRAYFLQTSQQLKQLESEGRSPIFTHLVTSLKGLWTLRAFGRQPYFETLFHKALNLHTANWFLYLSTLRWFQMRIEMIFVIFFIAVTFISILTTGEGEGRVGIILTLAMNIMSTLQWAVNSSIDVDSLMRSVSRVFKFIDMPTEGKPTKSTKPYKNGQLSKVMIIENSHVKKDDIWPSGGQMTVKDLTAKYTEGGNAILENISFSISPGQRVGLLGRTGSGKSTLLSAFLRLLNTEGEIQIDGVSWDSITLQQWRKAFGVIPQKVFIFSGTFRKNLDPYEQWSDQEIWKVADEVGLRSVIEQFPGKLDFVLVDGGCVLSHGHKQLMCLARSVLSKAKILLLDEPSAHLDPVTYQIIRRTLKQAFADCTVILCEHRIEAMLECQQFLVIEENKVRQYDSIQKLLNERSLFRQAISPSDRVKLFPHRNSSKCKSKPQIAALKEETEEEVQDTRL

| IC50 [µM] | SMILES |
| --- | --- |
| 23.8 | O=C(NCc1ccccc1C(F)(F)F)c1ncn(-c2cc(Cl)c(O)c(Cl)c2)n1 [35i, 1-(3,5-dichloro-4-hydroxyphenyl)-N-(2-(trifluoromethyl)benzyl)-1H-1,2,4-triazole-3-carboxamide] |
| 2.8 | CC(C)(C)c1ccc(CN(CCOCCOCCOCCOCCOCCOCc2ccccc2)C(=O)c2ncn(-c3cc(Cl)c(O)c(Cl)c3)n2)cc1 [116i, N-(4-tert-butylbenzyl)-1-(3,5-dichloro-4-hydroxyphenyl)-N-(1-phenyl-2,5,8,11,14,17-hexaoxanonadecan-19-yl)-1H-1,2,4-triazole-3-carboxamide] |
| 3.16 | O=C(c1ncn(-c2cc(Cl)c(O)c(Cl)c2)n1)N(Cc1ccccc1)Cc1cccc(C(F)(F)F)c1 [85i, N-benzyl-1-(3,5-dichloro-4-hydroxyphenyl)-N-(3-(trifluoromethyl)benzyl)-1H-1,2,4-triazole-3-carboxamide] |
| 2.23 | CC(C)(C)CCN(Cc1cccc(C(F)(F)F)c1)C(=O)c1ncn(-c2cc(Cl)c(O)c(Cl)c2)n1 [79i, 1-(3,5-dichloro-4-hydroxyphenyl)-N-(3,3-dimethylbutyl)-N-(3-(trifluoromethyl)benzyl)-1H-1,2,4-triazole-3-carboxamide] |
| 15.9 | O=C(c1ncn(-c2cc(Cl)c(O)c(Cl)c2)n1)N1CCC(Cc2ccccc2)CC1 [5i, (4-benzylpiperidin-1-yl)(1-(3,5-dichloro-4-hydroxyphenyl)-1H-1,2,4-triazol-3-yl)methanone] |
| 5.61 | O=C(NCc1cccc(N2CCCCC2)c1)c1ncn(-c2cc(Cl)c(O)c(Cl)c2)n1 [38i, 1-(3,5-dichloro-4-hydroxyphenyl)-N-(3-(piperidin-1-yl)benzyl)-1H-1,2,4-triazole-3-carboxamide] |
| 22.4 | O=C(NCc1ccccc1OC(F)F)c1ncn(-c2cc(Cl)c(O)c(Cl)c2)n1 [41i, 1-(3,5-dichloro-4-hydroxyphenyl)-N-(2-(difluoromethoxy)benzyl)-1H-1,2,4-triazole-3-carboxamide] |
| 22.4 | O=C(NCc1cccc(C(F)(F)F)c1)c1ncn(-c2cc(Cl)c(O)c(Cl)c2)n1 [8i, 1-(3,5-dichloro-4-hydroxyphenyl)-N-(3-(trifluoromethyl)benzyl)-1H-1,2,4-triazole-3-carboxamide] |
| 3.7 | O=C(NCc1cccc(-c2ccccc2)c1)c1ncn(-c2cc(Cl)c(O)c(Cl)c2)n1 [25i, N-(biphenyl-3-ylmethyl)-1-(3,5-dichloro-4-hydroxyphenyl)-1H-1,2,4-triazole-3-carboxamide] |

Same assay, conditions: isoxazole-containing compounds (Table 10, 10′, 11, 11′), read-out: IC50

| IC50 [µM] | SMILES |
| --- | --- |
| 19 | CN(Cc1ccc2c(c1)OCO2)C(=O)c1cc(-c2cc(Br)c(O)c(Br)c2)on1 [4g, N-(benzo[d][1,3]dioxol-5-ylmethyl)-5-(3,5-dibromo-4-hydroxyphenyl)-N-methylisoxazole-3-carboxamide] |
| 14.6 | CN(Cc1ccc2c(c1)OCO2)C(=O)c1cc(-c2cc(Cl)c(O)c(Cl)c2)on1 [8g, N-(benzo[d][1,3]dioxol-5-ylmethyl)-5-(3,5-dichloro-4-hydroxyphenyl)-N-methylisoxazole-3-carboxamide] |
| 7.4 | O=C(c1cc(-c2cc(Br)c(O)c(Br)c2)on1)N1CCN(c2ccc(Cl)c(Cl)c2)CC1 [10g, (5-(3,5-dibromo-4-hydroxyphenyl)isoxazol-3-yl)(4-(3,4-dichlorophenyl)piperazin-1-yl)methanone] |

Same assay, conditions: oxadiazole-containing compounds (a series), average of at least 2 runs unless annotated n = 1, read-out: IC50

| IC50 [µM] | SMILES |
| --- | --- |
| 12.7 | O=C(NCc1cccc(F)c1)c1nc(-c2cc(Br)c(O)c(Br)c2)no1 [23a, 3-(3,5-dibromo-4-hydroxyphenyl)-N-(3-fluorobenzyl)-1,2,4-oxadiazole-5-carboxamide] |
| 8.88 | CC(C)(C)C(=O)CN(Cc1ccc(F)c(F)c1)C(=O)c1nc(-c2cc(Cl)c(O)c(Cl)c2)no1 [152a, 3-(3,5-dichloro-4-hydroxyphenyl)-N-(3,4-difluorobenzyl)-N-(3,3-dimethyl-2-oxobutyl)-1,2,4-oxadiazole-5-carboxamide] |
| 16.2 | O=C(NCc1ccc(Cl)c(C(F)(F)F)c1)c1nc(-c2cc(Br)c(O)c(Br)c2)no1 [30a, N-(4-chloro-3-(trifluoromethyl)benzyl)-3-(3,5-dibromo-4-hydroxyphenyl)-1,2,4-oxadiazole-5-carboxamide] |
| 14.8 | Cc1ccc(CNC(=O)c2noc(-c3cc(Cl)c(O)c(Cl)c3)n2)cc1 [81a, 5-(3,5-dichloro-4-hydroxyphenyl)-N-(4-methylbenzyl)-1,2,4-oxadiazole-3-carboxamide] |
| 6.19 | O=C(c1nc(-c2cc(Br)c(O)c(Br)c2)no1)N1CCN(c2cccc(C(F)(F)F)c2)CC1 [6a, (3-(3,5-dibromo-4-hydroxyphenyl)-1,2,4-oxadiazol-5-yl)(4-(3-(trifluoromethyl)phenyl)piperazin-1-yl)methanone] |
| 20.4 | O=C(NCc1cccc(OC(F)F)c1)c1nc(-c2cc(Cl)c(O)c(Cl)c2)no1 [135a, 3-(3,5-dichloro-4-hydroxyphenyl)-N-(3-(difluoromethoxy)benzyl)-1,2,4-oxadiazole-5-carboxamide] |
| 3.62 | C=CCN(Cc1ccc(F)c(F)c1)C(=O)c1nc(-c2cc(Cl)c(O)c(Cl)c2)no1 [170a, N-allyl-3-(3,5-dichloro-4-hydroxyphenyl)-N-(3,4-difluorobenzyl)-1,2,4-oxadiazole-5-carboxamide] |
| 10.2 | CN(Cc1ccc(Oc2ccccc2)cc1)C(=O)c1nc(-c2cc(Cl)c(O)c(Cl)c2)no1 [142a, 3-(3,5-dichloro-4-hydroxyphenyl)-N-methyl-N-(4-phenoxybenzyl)-1,2,4-oxadiazole-5-carboxamide] |
| 9.95 | CC(C)Oc1ccc(CNC(=O)c2nc(-c3cc(Cl)c(O)c(Cl)c3)no2)cc1 [127a, 3-(3,5-dichloro-4-hydroxyphenyl)-N-(4-isopropoxybenzyl)-1,2,4-oxadiazole-5-carboxamide] |
| 7.17 | O=C(NCC(c1ccccc1)c1ccccc1)c1nc(-c2cc(Br)c(O)c(Br)c2)no1 [9a, 3-(3,5-dibromo-4-hydroxyphenyl)-N-(2,2-diphenylethyl)-1,2,4-oxadiazole-5-carboxamide] |
| 4.41 | Cc1cncc(Oc2cccc(CN(C)C(=O)c3nc(-c4cc(Cl)c(O)c(Cl)c4)no3)c2)n1 [172a, 3-(3,5-dichloro-4-hydroxyphenyl)-N-methyl-N-(3-(6-methylpyrazin-2-yloxy)benzyl)-1,2,4-oxadiazole-5-carboxamide] |
| 8.07 | CN(Cc1ccc(-c2ccc(C(F)(F)F)cn2)cc1)C(=O)c1nc(-c2cc(Cl)c(O)c(Cl)c2)no1 [174a, 3-(3,5-dichloro-4-hydroxyphenyl)-N-methyl-N-(4-(5-(trifluoromethyl)pyridin-2-yl)benzyl)-1,2,4-oxadiazole-5-carboxamide] |
| 11.8 | O=C(NCc1ccc(F)cc1)c1noc(-c2cc(Cl)c(O)c(Cl)c2)n1 [115a, 5-(3,5-dichloro-4-hydroxyphenyl)-N-(4-fluorobenzyl)-1,2,4-oxadiazole-3-carboxamide] |

| SMILES | IC50 [µM] |
| --- | --- |
| CC(C)(C)ONC(=O)COc1c(Br)cc(-c2noc(C(=O)N3CCC(Cc4ccccc4)CC3)n2)cc1Br [205a, 2-(4-(5-(4-benzylpiperidine-1-carbonyl)-1,2,4-oxadiazol-3-yl)-2,6-dibromophenoxy)-N-tert-butoxyacetamide] | 23.1 |

Same assay, conditions: thiadiazole-containing compounds (Table 12), read-out: IC50

| IC50 [µM] | SMILES |
| --- | --- |
| 6.57 | Oc1c(Cl)cc(-c2nnc(CN3c4ccccc4Sc4ccccc43)s2)cc1Cl [3h, 4-(5-((10H-Phenothiazin-10-yl)methyl)-1,3,4-thiadiazol-2-yl)-2,6-dichlorophenol] |
